Several values for one entry are separate records, joined by “and”; a condition that tells them apart may be missing. Identical values can stand only once.
Assays:
[1] = system: transmission of virus from chronically infected H9 cells to ME180 cervical epithelial cells; test: Topical microbicide assay (p24 ELISA); assay type: cell-based, HIV; conditions: qualitative
Experimental: MEI 180 cervical epithelial cells were plated in the interior walls of a 96-well flat bottom microtiter plate at a density of […] cells per well and incubated overnight. Chronically infected H9 cells wee treated with 200 μg/ml mitomycin C in complete medium for one hour, washed extensively and resuspended at 4×10^5 per ml. […] Antiviral compounds and chronically infected cells (2×10^4) were added to each well containing ME180 cells and incubated for 6 hours. Following co-cultivation the monolayer was washed extensively and fresh medium added. Medium was removed and fresh medium added at 24 and 48 hours post-infection to remove dead lymphocytes. On day 6 post-infection, supernatant samples were removed and analyzed for virus content by p24 ELISA.

[2] = cited from earlier work
HSV-1 = test: In vitro HSV-1 plaque inhibition on fibroblasts; assay type: cell-based
Experimental: Laboratory testing was undertaken at the University Of Chicago, Clinical Microbiology Laboratories to determine inhibitory activity in vitro of the medical treatment and composition (medicine). The laboratory testing was conducted by the Associate Director, PhD, and Associate Professor of Pathology. […] It was stated by the pathologist, that they had tested “hundreds” of other compounds and had never seen anything as good as what this compound did. The following are the tests of the medicine that were conducted and results that were obtained at The University of Chicago. For ease of interpreting some of the scientific data and test results, the following definitions apply: • “MEM” pertains to Minimal Essential Medium. This is the culture medium used in laboratories for growing the cells upon which tests were run. • “Fibroblast” is a mesenchyme human cell (a cell found in connective tissue, blood, bone, lymphatics, and cartilage). • “IC50” pertains to the Inhibitory Concentrate. […] 1. Three 24-compartment plates were inoculated with fibroblasts. […] There were four control compartments on each plate containing MEM without drug. 2. The growth media was removed from the compartments and 200 ul of HSV-1 was added to each compartment of the upper half of each plate. HSV-1 was diluted 1:5000 (2.0 ul of stock HSV-1 in 10 mL of MEM). […] Also, 200 ul of HSV-2 was added to each compartment of the lower half of each plate. HSV-2 was diluted 1:2,000 (5.0 ul of stock HSV-2 in 10 mL of MEM). The virus titer was 6×10^5 per mL. 3. The plates were incubated at 37° C. for two hours. 4. The inoculum was removed and one mL of the MEM containing Drugs #1-3 were added to the four compartments. The concentration of the drug compared to the MEM is indicated below. 1. Three plates were used to screen the three drug preparations. […] There were four control compartments on each plate containing MEM without drug. 2. The growth media was removed from the compartments and 200 ul of HSV-1 was added to each compartment of the upper half of each plate. HSV-1 was diluted 1:5000 (2.0 ul of stock HSV-1 in 10 mL of MEM). […] 3. The plates were incubated at 37° C. for four hours. 4. The inoculum was removed and one mL of the MEM containing drugs #1A-3A were added to the four compartments. 1. Four plates were used to screen the four drug preparations. […] There were four control compartments on each plate containing MEM without drug. 2. The growth media was removed from the compartments and 200 ul of HSV-1 was added to each compartment of the upper two rows of each plate. HSV-1 was diluted 1:5000 (2.0 ul of stock HSV-1 in 10 mL of MEM). […] Also, 200 ul of HSV-2 was added to each compartment of the lower half of each plate. HSV-2 was diluted 1:2,000 (5.0 ul of stock HSV-2 in 10 mL of MEM). The virus titer was 6×10^5 per mL. 3. The plates were incubated at 37° C. for four hours. 4. The inoculum was removed and one mL of the MEM containing drugs #1-4 was added to the four compartments.

HSV-2 = test: In vitro HSV-2 plaque inhibition on fibroblasts; assay type: cell-based
Experimental: Laboratory testing was undertaken at the University Of Chicago, Clinical Microbiology Laboratories to determine inhibitory activity in vitro of the medical treatment and composition (medicine). The laboratory testing was conducted by the Associate Director, PhD, and Associate Professor of Pathology. […] It was stated by the pathologist, that they had tested “hundreds” of other compounds and had never seen anything as good as what this compound did. The following are the tests of the medicine that were conducted and results that were obtained at The University of Chicago. For ease of interpreting some of the scientific data and test results, the following definitions apply: • “MEM” pertains to Minimal Essential Medium. This is the culture medium used in laboratories for growing the cells upon which tests were run. • “Fibroblast” is a mesenchyme human cell (a cell found in connective tissue, blood, bone, lymphatics, and cartilage). • “IC50” pertains to the Inhibitory Concentrate. […] Three 24-compartment plates were inoculated with fibroblasts. […] There were four control compartments on each plate containing MEM without drug. 2. The growth media was removed from the compartments and 200 ul of HSV-1 was added to each compartment of the upper half of each plate. […] Also, 200 ul of HSV-2 was added to each compartment of the lower half of each plate. […] The virus titer was 6×10^5 per mL. 3. The plates were incubated at 37° C. for two hours. 4. The inoculum was removed and one mL of the MEM containing Drugs #1-3 were added to the four compartments. The concentration of the drug compared to the MEM is indicated below. […] Four plates were used to screen the four drug preparations. […] There were four control compartments on each plate containing MEM without drug. 2. The growth media was removed from the compartments and 200 ul of HSV-1 was added to each compartment of the upper two rows of each plate. […] Also, 200 ul of HSV-2 was added to each compartment of the lower half of each plate. […] The virus titer was 6×10^5 per mL. 3. The plates were incubated at 37° C. for four hours. 4. The inoculum was removed and one mL of the MEM containing drugs #1-4 was added to the four compartments.

[3] = system: clinical HIV isolate ROJO in fresh human PBMCs; test: PBMC/ROJO reverse transcriptase activity assay; assay type: cell-based; conditions: qualitative; PHA blastogenesis
Experimental: A microtiter based reverse transcriptase (RT) reaction was utilized. Tritiated thymidine triphosphate (NEN) (TTP) was resuspended in distilled H2O at 5 Ci/ml. Poly rA and oligo dT were prepared as a stock solution which was kept at −20° C. The RT reaction buffer was prepared fresh on a daily basis and consists of 125 μl MEGTA, 125 μl dH2O, 125 μl Triton X-100, 50 μl 1M Tris (pH 7.4), 50 μl MDTT, and 40 μl MMgCl2. These three solutions were mixed together in a ratio of 1 parts TTP, 2.5 parts poly rA:oligo dT, 2.5 parts reaction, the reaction buffer and 4 parts distilled water. Ten microliters of this reaction mixture was placed in a round bottom microtiter plate and 15 μl of virus containing supernatant was added and mixed. The plate was incubated at 37° C. and incubated for 60 minutes. […] Incorporated radioactivity was quantitated utilizing a Wallac Microbeta scintillation counter. […]
In the standard PBL assay (MOI: 0.2), the assay was ended on day 7 following collection of cell free supernatant samples for reverse transcriptase activity assay. In the low MOI PBL assay (MOI: 0.02), supernatant samples were collected on day 6, day 11, and day 14 post-infection and analyzed for […]. […]

[4] = system: HIV-1 clinical isolate ADA in fresh human monocyte-macrophages; test: Anti-HIV monocyte-macrophage assay (p24 ELISA); assay type: cell-based; conditions: for P-24 Activity: vs. ADA
Experimental: ELISA kits were purchased from Coulter. The assay is performed according to the manufacturer's recommendations. Prior to ELISA analysis, the reverse transcriptase activity assays were routinely performed and the values were used for incorporated radioactivity in the RT activity assay to determine the dilution of samples required for the ELISA. Control curves were generated in each assay to accurately quantititate the amount of capsid protein in each sample. Data was obtained by spectrophotometric analysis at 450 nm using a Molecular Devices Vmax plate reader. P24 concentrations were calculated from the optical density values by use of the Molecular Devices software package Soft Max.
For isolation of a adherent cells, 3×10^6 non-PHA stimulated peripheral blood cells were resuspended in Hanks buffered saline with calcium and magnesium supplemented with 10% human AB serum. The cells were placed in a 24-well microtiter plate at 37° C. for 2 hours. Non-adherent cells were removed by vigorously washing six times. The adherent cells were cultured for 7 days in RPM1 1640 tissue culture medium with 15% fetal bovine serum. The cultures were carefully monitored for confluency during this incubation period. Infection of the cells was performed with the monocytotropic HIV-1 strains BaL or ADA and the matched pair of AZT-sensitive and AZT-resistant virus isolates. Each of these virus isolates was obtained from the NLAID AIDS Research and Reference Reagent Program. High titer pools of each of these viruses have been harvested from infected cultures of peripheral blood adherent cells and frozen in 1.0 ml aliquots at −80° C. Monocyte-macrophage monolayers were infected at an MOI of 0.1. […] Compounds to be evaluated in the monocyte-macrophage assay were added to the monolayers shortly before infection in order to maximize the potential for identifying active compounds.
At two days post-infection, the medium was decanted and the cultures washed twice with complete medium in order to remove excess virus. Fresh medium alone or medium containing the appropriate concentration of drugs was added and incubation continued for an additional 5 days. XTT-tetrazolium or trypan blue exclusion assays for cell viability and HIV p24 ELISA assays for production of p24 core antigen were performed on Day 7 post-infection. ELISA kits were purchased from Coulter. Control curves were generated in each assay to accurately quantitate the amount of capsid protein in each sample. Data was obtained by spectrophotometric analysis at 450 nm using a Molecular Devices Vmax plate reader. P24 concentrations were calculated from the optical density values by use of the Molecular Device software package Soft Max.

Question: For Dextran sulfate, which “activity in topical microbicide assay” value [1] is on record?
Answer: expected level of activity

Question: With `OCc1ccccc1` [Benzyl alcohol] as the compound, how does the solubility in water [2] read?
Answer: 4 g/100 mL

Question: What does the source list for Benzalkonium chloride [Drug #1A]?
Answer: plaques (HSV-1; HSV-1, 1:2): toxic; plaques (HSV-1; HSV-1, 1:4): toxic; plaques (HSV-1; HSV-1, 1:8): toxic; plaques (HSV-1; HSV-1, 1:16): toxic; plaques (HSV-1; HSV-1, 1:32): toxic

Question: With Benzalkonium chloride [Drug #1B] as the compound, how does the plaques (HSV-1; HSV-1, 1:20) read?
Answer: toxic

Question: And the plaques (HSV-1; HSV-1, 1:40)?
Answer: toxic

Question: And the plaques (HSV-1; HSV-1, 1:80)?
Answer: toxic

Question: And the plaques (HSV-1; HSV-1, 1:160)?
Answer: toxic

Question: What about the plaques (HSV-1; HSV-1, 1:320) of the same compound?
Answer: 15?* and 18?*

Question: What about the plaques (HSV-2; HSV-2, 1:20) of the same compound?
Answer: toxic

Question: What about the plaques (HSV-2; HSV-2, 1:40) of the same compound?
Answer: toxic

Question: What about the plaques (HSV-2; HSV-2, 1:80) of the same compound?
Answer: toxic

Question: And the plaques (HSV-2; HSV-2, 1:160)?
Answer: toxic

Question: And the Average plaques (HSV-2; HSV-2, 1:320)?
Answer: 19

Question: And the plaques (HSV-2; HSV-2, 1:320)?
Answer: 21 and 17

Question: With dextran as the compound, how does the “activity in topical microbicide assay” value [1] read?
Answer: expected level of activity

Question: For `Cc1cn([C@H]2C[C@H](N=[N+]=[N-])[C@@H](CO)O2)c(=O)[nH]c1=O` [AZT, zidovudine], which “inhibition of replication of isolate ROJO in fresh human PBMCs” value [3] is on record?
Answer: expected level of activity

Question: What about the “activity in monocyte-macrophages infected with ADA” value ([4]; qualitative) of the same compound?
Answer: expected level of activity

Question: What about the “P-24 Activity” value ([4]; 0.0004 μM) of the same compound?
Answer: 1005.00 pg/mL and 1252.00 pg/mL and 954.10 pg/mL and 1097.00 pg/mL and 1160.00 pg/mL and 1098.00 pg/mL

Question: What about the “P-24 Activity” value ([4]; 0.0014 μM) of the same compound?
Answer: 919.00 pg/mL and 1150.00 pg/mL and 678.70 pg/mL and 821.90 pg/mL and 594.80 pg/mL and 983.10 pg/mL

Question: And the “P-24 Activity” value ([4]; 0.004 μM)?
Answer: 470.80 pg/mL and 660.90 pg/mL and 912.30 pg/mL and 914.90 pg/mL and 891.20 pg/mL and 499.20 pg/mL

Source: patent US9662360B2, “Treatment of herpes, pseudomonas, staph, and hepatitis” (priority 2008, dated 2017)
